This passage reports LC retention time results from the RepoRT retention time repository.

This data set can be described thus: RP, Restek Raptor Biphenyl, 100 × 2.1 mm, 2.7 µm, 50 °C, 0.4 mL/min, estimated dead time 0.55 min; A: water + 0.1% formic acid, pH 3; B: methanol + 0.1% formic acid, pH 3; gradient (min/%B) 0/5 1.12/5 6.41/99.5 10.01/99.5. The conditions noted are these: stereoisomer not certain.

For `Nc1ncnc2c1ncn2C1OC(COP(=O)(O)O)C(OP(=O)(O)O)C1O` (configuration not stated) [ADENOSINE 3',5'-DIPHOSPHATE], the LC retention time was 0.695 min.
The result for `CCCCCCC[n+]1cccc(S(=O)(=O)[O-])c1` [C7-APS] reads 4.41 min; that for `COc1cc(OC)nc(NC(=O)NS(=O)(=O)c2cc(NC=O)ccc2C(=O)N(C)C)n1` [Foramsulfron], 5.76 min.
Regarding `O=C(O)CCc1ccc(O)cc1` [3-(4-Hydroxyphenyl)propionic acid], the LC retention time was 3.65 min.
As to `CC(CCC(=O)O)CC(=O)O` (configuration not stated) [3-Methyladipic acid], the LC retention time is 3.25 min.
The value for `COP(=O)(NC(C)=O)SC` (configuration not stated) [Acephate] was 2.34 min.
The result for `NC(=O)C1CCCN1C(=O)C(Cc1cnc[nH]1)NC(=O)C1CCC(=O)N1` (configuration not stated) [THYROTROPIN RELEASING HORMONE] reads 1.99 min.
The value for `CCCCCCCCCCCCCCCCCCCCCCCCCCC(=O)O` [Heptacosanoic Acid] was 7.05 min; that for `CC(=O)N[C@@H](CC(=O)O)C(=O)O` [N-Acetyl-L-aspartic acid] was 0.77 min.
With `C#CC(C)(C)NC(=O)c1cc(Cl)cc(Cl)c1` [Propyzamide], the LC retention time was 5.6 min.
Take `CCCCCCCCCCCCCCCCCCCCCCCCC(=O)O` [Pentacosanoic Acid]: the LC retention time was 6.98 min.
The value for `CSCCC(NC(C)=O)C(=O)O` (configuration not stated) [N-ACETYLMETHIONINE] was 3.04 min.
The result for `CCCCCCCCCCCCCCC[n+]1cccc(S(=O)(=O)[O-])c1` [C15-APS] reads 6.23 min; that for `CCCCCCCCCCCC=CCCCCC(=O)O` [PETROSELINATE], 6.63 min.
`CC1(C)CCC(=Cc2ccc(Cl)cc2)C1(O)Cn1cncn1` (configuration not stated) [Triticonazole]: the LC retention time was 5.93 min.
Take `COc1cc(C(O)C(=O)O)ccc1O` (racemic) [DL-4-Hydroxy-3-methoxymandelic acid]: the LC retention time is 1.73 min.
Turning to `CC(=O)N[C@@H](Cc1ccc(O)cc1)C(=O)O` [N-Acetyl-L-tyrosine], the LC retention time is 2.88 min.
The result for `NC(Cc1c[nH]c2ccccc12)C(=O)O` (configuration not stated) [TRYPTOPHAN] reads 2.53 min; that for `CC(CCC(=O)NCC(=O)O)C1CCC2C3CC(O)C4CC(O)CCC4(C)C3CCC12C` (configuration not stated) [Glycohyodeoxycholic acid], 5.79 min; that for `C[C@H](CCC(=O)O)[C@H]1CC[C@H]2[C@@H]3[C@H](O)C[C@@H]4C[C@H](O)CC[C@]4(C)[C@H]3CC(=O)[C@]12C` [(3ALPHA,5BETA,7ALPHA)-3,7-DIHYDROXY-12-OXOCHOLAN-24-OIC ACID], 6.07 min.
Turning to `CCCCCCCCCCCCCCC(O)C(=O)O` (configuration not stated) [2-Hydroxyhexadecanoic acid], the LC retention time is 6.3 min.
The value for `CC12CCC(=O)C=C1CCC1C2C(O)CC2(C)C1CCC2(O)C(=O)CO` (configuration not stated) [CORTISOL] was 5.49 min; that for `CC(C)(CC(=O)O)CC(=O)O` [3,3-Dimethylglutaric acid] was 3.16 min; that for `CCCCCCCCCCCCCCCCCCCCCCCCCCCCCC(=O)O` [Melissic acid] was 7.12 min.
In the case of `CCCCCCCCC[n+]1cccc(S(=O)(=O)[O-])c1` [C9-APS], the LC retention time is 5.13 min.
The result for `Cc1cn(C2CC(O)C(CO)O2)c(=O)[nH]c1=O` (configuration not stated) [THYMIDINE] reads 2.18 min.
With `N#CCNC(=O)c1cnccc1C(F)(F)F` [Flonicamid], the LC retention time was 3.4 min.
For the compound `Nc1nc2c(ncn2C2CC(O)C(CO)O2)c(=O)[nH]1` (configuration not stated) [DEOXYGUANOSINE], the LC retention time is 1.59 min.
The value for `O=C(O)CCCCC(=O)O` [Adipic acid] was 2.5 min; that for `O=C(O)CCCCCC(=O)O` [6-CARBOXYHEXANOATE] was 3.35 min.
For `O=C(O)CCCCCCCC(O)C(O)CCCCCCO` (configuration not stated) [Aleuritic acid], the LC retention time was 4.92 min.
For `O=C(O)c1cccnc1C(=O)O` [QUINOLINATE], the LC retention time is 1 min.
In the case of `COC(=O)c1ccc(CNS(C)(=O)=O)cc1S(=O)(=O)NC(=O)Nc1nc(OC)cc(OC)n1` [Mesosulfuron-methyl], the LC retention time is 6.04 min.
In the case of `O=C(O)C(O)c1ccc(O)c(O)c1` (configuration not stated) [3,4 DIHYDROXYMANDELATE], the LC retention time was 0.822 min.
Consider `CC(=O)NC(Cc1ccccc1)C(=O)O` (configuration not stated) [N-ACETYLPHENYLALANINE], for which the LC retention time is 4.06 min.
Take `O=Cc1c[nH]c2ccccc12` [Indole-3-carboxaldehyde]: the LC retention time was 4.24 min.
Turning to `COC(=O)c1c(Cl)nn(C)c1S(=O)(=O)NC(=O)Nc1nc(OC)cc(OC)n1` [Halosulfuron-methyl], the LC retention time is 6.42 min.
With `Nc1nc2c(ncn2C2OC(CO)C(O)C2O)c(=O)[nH]1` (configuration not stated) [GUANOSINE], the LC retention time is 1.15 min.
Regarding `O=C(O)c1c[nH]c2ccccc12` [Indole-3-carboxylic acid], the LC retention time was 4.08 min.
The result for `C[C@H](CCC(=O)O)[C@H]1CC[C@H]2[C@@H]3CC[C@@H]4CC(=O)CC[C@]4(C)[C@H]3CC[C@]12C` [3-Oxo-5β-cholanoic Acid] reads 6.93 min; that for `O=C(O)CCCCCCC(O)CC(=O)O` (configuration not stated) [3-Hydroxy Sebacic Acid], 3.95 min.
On to `N[C@@H](Cc1ccc(O)c([N+](=O)[O-])c1)C(=O)O` [3-NITRO-L-TYROSINE], for which the LC retention time is 1.92 min.
On to `O=C(O)C=C(CC(=O)O)C(=O)O` [cis-Aconitic acid], for which the LC retention time is 0.818 min.
On to `N#Cc1nn(-c2c(Cl)cc(C(F)(F)F)cc2Cl)c(N)c1S(=O)C(F)(F)F` (configuration not stated) [Fipronil], for which the LC retention time was 5.6 min.
Take `CC(CCC(=O)NCCS(=O)(=O)O)C1CCC2C3CCC4CC(O)CCC4(C)C3CCC12C` (configuration not stated) [Taurolithocholic acid]: the LC retention time is 6.47 min.
The result for `CCCCCCCCCCCCCCCCCC(=O)OC(CC(=O)[O-])C[N+](C)(C)C` [Stearoyl-L-carnitine] reads 6.13 min; that for `O=C(O)Cc1cc(O)ccc1O` [HOMOGENTISATE], 1.47 min.
The result for `CC(C)CC(O)C(=O)O` (configuration not stated) [2-Hydroxyisocaproic acid] reads 2.76 min; that for `CN(C)C(=O)Nc1ccc(Cl)c(Cl)c1` [Diuron], 5.22 min.
As for `O=C(O)[C@H](O)Cc1ccccc1` [D-(+)-3-Phenyllactic acid], the LC retention time is 3.79 min.
Take `O=C(O)CCCCC1SCC2NC(=O)NC21` (configuration not stated) [BIOTIN]: the LC retention time is 4 min.
Regarding `O=C(Nc1ccc(F)cc1F)c1cccnc1Oc1cccc(C(F)(F)F)c1` [Diflufenican], the LC retention time was 6.33 min.
As for `CCCCCCCCCCCCCCC(=O)O` [Pentadecanoic acid], the LC retention time was 6.44 min.
The result for `CNC(=N[N+](=O)[O-])NCC1CCOC1` (configuration not stated) [Dinotefuran] reads 3.16 min.
The value for `CCCCCCCCCCCCCC(O)CC(=O)OC(CC(=O)[O-])C[N+](C)(C)C` [[(3R)-3-Hydroxyhexadecanoyl]-L-carnitine] was 5.77 min.
The result for `O=C(O)C(O)Cc1c[nH]c2ccccc12` (racemic) [DL-Indole-3-lactic acid] reads 3.91 min; that for `O=c1[nH]c(=O)c2[nH]cnc2[nH]1` [XANTHINE], 0.933 min.
